Measurements: ChEMBL document CHEMBL5385964, “1,5-Disubstituted tetrazoles as PD-1/PD-L1 antagonists” (RSC Med Chem, 2024)
Active and inactive are the calls of the source. The calls are words filed in the database; no cut-off is given here.

Tests used:
[1] = biological target: Programmed cell death protein 1/Programmed cell death 1 ligand 1 (Homo sapiens, UniProt Q15116+Q9NZQ7); test: Antagonist activity at PD-1/PD-L1 interaction (unknown origin); type: protein-complex assay
[2] = biological target: Programmed cell death 1 ligand 1 (Homo sapiens) (UniProt Q9NZQ7); test: Induction of human PD-L1 dimerization at 1:1 molar ratio of protein:compound by 1H NMR analysis
Sequence of Programmed cell death 1 ligand 1 (Homo sapiens) (Q9NZQ7 whole entry): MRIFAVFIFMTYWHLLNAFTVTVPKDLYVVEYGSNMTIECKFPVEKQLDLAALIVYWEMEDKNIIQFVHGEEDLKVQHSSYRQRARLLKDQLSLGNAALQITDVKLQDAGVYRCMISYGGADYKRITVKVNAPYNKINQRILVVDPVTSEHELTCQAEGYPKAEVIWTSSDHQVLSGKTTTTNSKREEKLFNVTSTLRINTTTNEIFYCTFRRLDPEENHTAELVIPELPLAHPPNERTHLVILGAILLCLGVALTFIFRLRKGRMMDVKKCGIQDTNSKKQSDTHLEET

Sequence of Programmed cell death protein 1/Programmed cell death 1 ligand 1 (Q15116 whole entry): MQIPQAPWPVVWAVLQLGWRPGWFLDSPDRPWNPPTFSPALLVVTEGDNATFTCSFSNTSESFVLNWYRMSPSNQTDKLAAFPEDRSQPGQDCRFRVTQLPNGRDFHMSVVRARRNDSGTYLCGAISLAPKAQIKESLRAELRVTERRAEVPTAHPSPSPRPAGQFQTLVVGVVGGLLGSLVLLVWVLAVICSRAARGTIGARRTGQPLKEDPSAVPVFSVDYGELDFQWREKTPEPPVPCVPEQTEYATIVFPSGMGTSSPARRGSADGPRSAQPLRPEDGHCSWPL
Sequence of Programmed cell death protein 1/Programmed cell death 1 ligand 1 (Q9NZQ7 whole entry): as the sequence (Q9NZQ7 whole entry) above

SMILES	IC50 [1] [nM]	Activity [2]
COCCNCc1ccc(C(F)(F)F)c(/C=C/c2cccc(-c3cccc(/C=C/c4cc(CN[C@@](C)(CO)C(=O)O)ccc4C(F)(F)F)c3C)c2Cl)c1	2.3	–
COc1cc(/C=C2\CCc3c2cccc3-c2cccc3c2CC/C3=C\c2cc(CN[C@H](CO)C(=O)O)cc(OC)c2)cc(CN[C@@H](CO)C(=O)O)c1	2.9	–
CCNCc1nnnn1/C=C/c1cccc(-c2ccccc2)c1C	–	Active
Cc1c(/C=C/n2nnnc2C(C)NCCCO)cccc1-c1ccc2c(c1)OCCO2 (stereo unspecified)	–	Active
Cc1c(/C=C/n2nnnc2CN2CCCOC2)cccc1-c1ccccc1	–	Active
Cc1c(/C=C/c2cc(CN[C@@H](CO)C(=O)O)ccc2C(F)(F)F)cccc1-c1ccc2c(c1)OCCO2	13	–
